The values that follow come from patent publication US11345702B1 (Myoforte Therapeutics, Inc., priority 2020, dated 2022).

Where only a bound is given, the exact number is not on record here.

One may read the IC50 as the concentration at which inhibition is half-maximal.

A short description of data set [1]: Liver microsome stability assay (MLM). In kind it is in vitro ADME. Conditions: mouse liver microsomes. Here is the method: A microsomal mixture (microsomes and Kphos buffer) was prepared at a concentration of 1.428 mg/mL in 2 mL tubes. To this microsomal mixture 1.6 μL (1 mM) of test compound and positive control were spiked; from this mixture, 70 μL was transferred to 96 well plate and pre-incubated at 37° C. for 5 min. After pre-incubation, the zero minute time point reaction was stopped using 100 μL of ice-cold acetonitrile containing internal standard and […] (3.33 mM in Kphos buffer) was added. The 45 minute time point reaction was initiated by addition of 30 μL of NADPH (3.33 mM in Kphos buffer) and incubated at 37° C. for 15 and 45 min. Reactions without NADPH and buffer controls (minus NADPH) at 0, 15, and 45 minutes were also incubated to rule out non-NADPH metabolism or chemical instability in the incubation buffer. Incubation reactions were stopped with 100 μL of ice-cold acetonitrile containing internal standard. The plates were centrifuged at 4000 RPM for 15 min and 100 μL aliquots were submitted for analysis by LC-MS/MS. (Verapamil in human liver microsomes (HLM) and rat liver microsomes (RLM) was used as positive controls. Imipramine in mouse liver microsomes (MLM) was used as a positive control.) Samples were monitored for parent compound disappearance in MRM mode (multiple reaction monitoring) using LC-MS/MS. The peak area ratios of analyte versus internal standard were used to calculate the % remaining at the end of 45 minutes in the presence of NADPH.
(Liver microsomes are a subcellular fraction often used to study metabolism.)

Data set [2] has as its target 15-PGDH/HPGD (Homo sapiens (Human), UniProt P15428). Put plainly: hPGDH inhibitor screening biochemical assay. Conditions: read-out: hPGDH: Average IC50. In short, it runs like this: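 Recombinant human 15-PGDH (10 nM) pre-incubated with compounds 10 min at 37 °C, then 15 μM PGE2 and 0.25 mM NAD+ added for 10 min at room temperature in 50 mM Tris-HCl pH 7.5, 0.01% Tween 20. NADH fluorescence read at ex/em 340/485 nm. IC50 from 10-point curves, four-parameter fit versus 1% DMSO.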

Sequence of 15-PGDH/HPGD (P15428 whole entry): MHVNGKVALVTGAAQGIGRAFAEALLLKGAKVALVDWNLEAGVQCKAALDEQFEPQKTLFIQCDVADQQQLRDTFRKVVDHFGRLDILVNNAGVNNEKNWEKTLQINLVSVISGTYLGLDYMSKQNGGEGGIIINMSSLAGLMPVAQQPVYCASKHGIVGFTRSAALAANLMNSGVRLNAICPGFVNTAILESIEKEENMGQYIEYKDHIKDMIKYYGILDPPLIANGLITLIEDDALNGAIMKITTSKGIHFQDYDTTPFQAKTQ

In the case of `CCC(CC)NC(=O)c1ccc(-n2ccc3cc(C(=O)N4CCC(F)(F)CC4)cnc32)cn1` [MF-DH-437, 5-(5-(4,4-difluoropiperidine-1-carbonyl)-1H-pyrrolo[2,3-b]pyridin-1-yl)-N-(pentan-3-yl) picolinamide], in data set [1], the “MLM + NADPH (% remaining at 45 min)” value turned out to be 25%. Also, in data set [2], the half-inhibitory concentration (IC50) is less than 100 nM.

In the case of `O=C(NCCO)c1ccc(-n2ccc3cc(C(=O)N4CCC(F)(F)CC4)cnc32)cc1` [MF-DH-413], in data set [1], the “MLM + NADPH (% remaining at 45 min)” value came out at 94%. Moreover, the IC50 in data set [2] is less than 100 nM.

On to `O=C(c1cnc2c(ccn2-c2cncc(N3CCOC3=O)c2)c1)N1CCC(F)(F)CC1` [MF-DH-472], for which, in data set [1], the “MLM + NADPH (% remaining at 45 min)” value is 83%. For the same molecule, in data set [2], the IC50 was less than 100 nM.

Turning to `Cc1nc(-c2cncc(-n3ccc4cc(C(=O)N5CCC(F)(F)CC5)cnc43)c2)no1` [MF-DH-470, (4,4-difluoropiperidin-1-yl)(1-(5-(5-methyl-1,2,4-oxadiazol-3-yl)pyridin-3-yl)-1H-pyrrolo[2,3-b]pyridin-5-yl)methanone], in data set [1], the “MLM + NADPH (% remaining at 45 min)” value stood at 74%. Also, the IC50 in data set [2] is less than 100 nM.

As to `NC(=O)c1cncc(-n2cc(Cl)c3cc(C(=O)N4CCC(F)(F)CC4)cnc32)c1` [MF-DH-482], in data set [1], the “MLM + NADPH (% remaining at 45 min)” value was 103%. Moreover, the IC50 in data set [2] was less than 100 nM.

Regarding `NC(=O)c1ccc(-n2ccc3cc(C(=O)N4CCCCC4)cnc32)cn1` [MF-DH-365], in data set [1], the “MLM + NADPH (% remaining at 45 min)” value worked out at 41%. Moreover, the IC50 in data set [2] was less than 100 nM.

On to `CC(C)(O)CNC(=O)c1cc(Cl)cc(-n2ccc3cc(C(=O)N4CCC(F)(F)CC4)cnc32)c1` [MF-DH-521], for which the “MLM + NADPH (% remaining at 45 min)” value in data set [1] worked out at 84%. Also, in data set [2], the IC50 is less than 100 nM.

In the case of `NCCNC(=O)c1cccc(-n2ccc3cc(C(=O)N4CCC(F)(F)CC4)cnc32)c1` [MF-DH-467, N-(2-aminoethyl)-3-(5-(4,4-difluoropiperidine-1-carbonyl)-1H-pyrrolo[2,3-b]pyridin-1-yl)benzamide], the “MLM + NADPH (% remaining at 45 min)” value in data set [1] is on record as 90%. In addition, in data set [2], the half-maximal inhibitory concentration (IC50) was in the range of 100 to 1000 nM.

In the case of `CCC(CC)NC(=O)c1cncc(-n2ccc3cc(C(=O)N4CCC(F)(F)CC4)cnc32)c1` [MF-DH-407, 5-(5-(4,4-difluoropiperidine-1-carbonyl)-1H-pyrrolo[2,3-b]pyridin-1-yl)-N-(pentan-3-yl)nicotinamide], the “MLM + NADPH (% remaining at 45 min)” value in data set [1] worked out at 51%. Besides, the IC50 in data set [2] is less than 100 nM.

Regarding `O=C(c1cnc2c(ccn2-c2ccc(-c3nnc(C(F)(F)F)[nH]3)nc2)c1)N1CCC(F)(F)CC1` [MF-DH-519, (4,4-difluoropiperidin-1-yl)(1-(6-(5-(trifluoromethyl)-4H-1,2,4-triazol-3-yl)pyridin-3-yl)-1H-pyrrolo[2,3-b]pyridin-5-yl)methanone], the “MLM + NADPH (% remaining at 45 min)” value in data set [1] is given as 89%. Besides, the IC50 in data set [2] is less than 100 nM.

On to `O=C(O)c1cccc(-n2ccc3cc(C(=O)N4CCC(F)(F)CC4)cnc32)c1` [MF-DH-507, 3-(5-(4,4-difluoropiperidine-1-carbonyl)-1H-pyrrolo[2,3-b]pyridin-1-yl)benzoic acid], for which, in data set [1], the “MLM + NADPH (% remaining at 45 min)” value stood at 97%. Also, in data set [2], the IC50 is less than 100 nM.

As to `O=C(c1cnc2c(ccn2-c2cc(Cl)cc(C(=O)N3CCS(=O)(=O)CC3)c2)c1)N1CCC(F)(F)CC1`, the “MLM + NADPH (% remaining at 45 min)” value in data set [1] is reported as 37%. The IC50 in data set [2] is less than 100 nM.

With `O=C(c1cnc2c(ccn2-c2ccc(-c3n[nH]c(C4CC4)n3)nc2)c1)N1CCC(F)(F)CC1` [MF-DH-518, (1-(6-(5-cyclopropyl-1H-1,2,4-triazol-3-yl)pyridin-3-yl)-1H-pyrrolo[2,3-b]pyridin-5-yl)(4,4-difluoropiperidin-1-yl)methanone], the “MLM + NADPH (% remaining at 45 min)” value in data set [1] worked out at 92%. Also, the IC50 in data set [2] is less than 100 nM.

For `N/C(=N\O)c1ccc(-n2ccc3cc(C(=O)N4CCCCC4)cnc32)cc1` [MF-DH-399], the “MLM + NADPH (% remaining at 45 min)” value in data set [1] is 6%. In addition, the IC50 in data set [2] is less than 100 nM.

On to `O=C(Nc1ccno1)c1cncc(-n2ccc3cc(C(=O)N4CCC(F)(F)CC4)cnc32)c1` [MF-DH-459, 5-(5-(4,4-difluoropiperidine-1-carbonyl)-1H-pyrrolo[2,3-b]pyridin-1-yl)-N-(isoxazol-5-yl)nicotinamide], for which the “MLM + NADPH (% remaining at 45 min)” value in data set [1] came out at 31%. The IC50 in data set [2] was less than 100 nM.

In the case of `N/C(=N\O)c1cccc(-n2ccc3cc(C(=O)N4CCCCC4)cnc32)c1` [MF-DH-400], the “MLM + NADPH (% remaining at 45 min)” value in data set [1] is recorded as 0%. The IC50 in data set [2] was less than 100 nM.

Take `O=C(Nc1ccn(C2CC2)n1)c1cncc(-n2ccc3cc(C(=O)N4CCC(F)(F)CC4)cnc32)c1` [MF-DH-500, N-(1-cyclopropyl-1H-pyrazol-3-yl)-5-(5-(4,4-difluoropiperidine-1-carbonyl)-1H-pyrrolo[2,3-b]pyridin-1-yl)nicotinamide]: the “MLM + NADPH (% remaining at 45 min)” value in data set [1] was 60%. Besides, the IC50 in data set [2] was less than 100 nM.

As to `O=C(Nc1cc(C2CC2)[nH]n1)c1cccc(-n2ccc3cc(C(=O)N4CCC(F)(F)CC4)cnc32)c1` [MF-DH-498, N-(5-cyclopropyl-1H-pyrazol-3-yl)-3-(5-(4,4-difluoropiperidine-1-carbonyl)-1H-pyrrolo[2,3-b]pyridin-1-yl)benzamide], the “MLM + NADPH (% remaining at 45 min)” value in data set [1] is 0%. Moreover, the IC50 in data set [2] was less than 100 nM.

Regarding `Cc1nc(-c2ccc(-n3ccc4cc(C(=O)N5CCC(F)(F)CC5)cnc43)cn2)no1` [MF-DH-471, (4,4-difluoropiperidin-1-yl)(1-(6-(5-methyl-1,2,4-oxadiazol-3-yl)pyridin-3-yl)-1H-pyrrolo[2,3-b]pyridin-5-yl)methanone], the “MLM + NADPH (% remaining at 45 min)” value in data set [1] is listed as 99%. The IC50 in data set [2] is less than 100 nM.

As to `NC(=O)c1ccc(-n2cc(Cl)c3cc(C(=O)N4CCC(F)CC4)cnc32)cc1` [MF-DH-382, 4-(3-chloro-5-(4-fluoropiperidine-1-carbonyl)-1H-pyrrolo[2,3-b]pyridin-1-yl)benzamide], the “MLM + NADPH (% remaining at 45 min)” value in data set [1] worked out at 26%. Moreover, the IC50 in data set [2] was less than 100 nM.

As for `O=C(O)c1ccc(-n2ccc3cc(C(=O)N4CCC(F)(F)CC4)cnc32)cn1` [MF-DH-434, 5-(5-(4,4-difluoropiperidine-1-carbonyl)-1H-pyrrolo[2,3-b]pyridin-1-yl)picolinic acid], the “MLM + NADPH (% remaining at 45 min)” value in data set [1] is on record as 94%. For the same molecule, the IC50 in data set [2] was less than 100 nM.

`NC(=O)c1ccc(-n2cc(Cl)c3cc(C(=O)N4CCCCC4)cnc32)cc1` [MF-DH-383, 4-(3-chloro-5-(piperidine-1-carbonyl)-1H-pyrrolo[2,3-b]pyridin-1-yl)benzamide]: in data set [1], the “MLM + NADPH (% remaining at 45 min)” value amounted to 12%. For the same molecule, the IC50 in data set [2] is less than 100 nM.

In the case of `O=C(Nc1ccn(C2CC2)n1)c1cccc(-n2ccc3cc(C(=O)N4CCC(F)(F)CC4)cnc32)c1` [MF-DH-499, N-(1-cyclopropyl-1H-pyrazol-3-yl)-3-(5-(4,4-difluoropiperidine-1-carbonyl)-1H-pyrrolo[2,3-b]pyridin-1-yl)benzamide], the “MLM + NADPH (% remaining at 45 min)” value in data set [1] stood at 15%. In addition, the IC50 in data set [2] was less than 100 nM.

For the molecule `CC(C)(C)CNC(=O)c1cncc(-n2ccc3cc(C(=O)N4CCC(F)(F)CC4)cnc32)c1` [MF-DH-405, 5-(5-(4,4-difluoropiperidine-1-carbonyl)-1H-pyrrolo[2,3-b]pyridin-1-yl)-N-neopentylnicotinamide], the “MLM + NADPH (% remaining at 45 min)” value in data set [1] was found to be 86%. Besides, the IC50 in data set [2] was less than 100 nM.

Take `NC(=O)c1ccc(-n2cnc3cc(C(=O)N4CCC(F)(F)CC4)cnc32)cc1` [MF-DH-464]: in data set [1], the “MLM + NADPH (% remaining at 45 min)” value was found to be 100%. Besides, the IC50 in data set [2] is less than 100 nM.

As for `CC(C)(C)NC(=O)c1ccc(-n2ccc3cc(C(=O)N4CCC(F)(F)CC4)cnc32)cn1` [MF-DH-406, N-(tert-butyl)-5-(5-(4,4-difluoropiperidine-1-carbonyl)-1H-pyrrolo[2,3-b]pyridin-1-yl)picolinamide], the “MLM + NADPH (% remaining at 45 min)” value in data set [1] is 66%. The IC50 in data set [2] was less than 100 nM.

With `O=C(c1cnc2c(ccn2-c2cncc(-c3n[nH]c(C4CC4)n3)c2)c1)N1CCC(F)(F)CC1` [MF-DH-517, (1-(5-(5-cyclopropyl-1H-1,2,4-triazol-3-yl)pyridin-3-yl)-1H-pyrrolo[2,3-b]pyridin-5-yl)(4,4-difluoropiperidin-1-yl)methanone], the “MLM + NADPH (% remaining at 45 min)” value in data set [1] stood at 47%. Also, the IC50 in data set [2] was less than 100 nM.

Consider `CS(=O)(=O)NCCNC(=O)c1ccc(-n2ccc3cc(C(=O)N4CCC(F)(F)CC4)cnc32)cc1` [MF-DH-409, 4-(5-(4,4-difluoropiperidine-1-carbonyl)-1H-pyrrolo[2,3-b]pyridin-1-yl)-N-(2-(methylsulfonamido)ethyl)benzamide], for which the “MLM + NADPH (% remaining at 45 min)” value in data set [1] is reported as 78%. In addition, the IC50 in data set [2] was less than 100 nM.

`CC(C)(C)C(=O)NCCNC(=O)c1ccc(-n2ccc3cc(C(=O)N4CCC(F)(F)CC4)cnc32)cc1` [MF-DH-403, 4-(5-(4,4-difluoropiperidine-1-carbonyl)-1H-pyrrolo[2,3-b]pyridin-1-yl)-N-(2-pivalamidoethyl)benzamide]: the “MLM + NADPH (% remaining at 45 min)” value in data set [1] amounted to 45%. In data set [2], the IC50 is less than 100 nM.
